Common to all, as to type: cell-based
Assay [1] concerns human melanoma cells Mewo (with wild-type B-Raf). The experiment in a line: In vitro cell proliferation assay, Mewo. The following applies: 72 h treatment, cellular ATP readout. Here is the method:
(§1) Exponentially growing human melanoma cells A375 (with a mutated B-Raf) and human melanoma cells Mewo (with wild-type B-Raf) were seeded and incubated at 37° C. in a humidified 5% CO2 atmosphere. After 24 h, scalar doses of the compound were added to the medium and cells incubated for 72 h. At the end of treatment, cells were washed and counted. Cell number was determined by a cellular adenosine triphosphate monitoring system. Cell proliferation was compared to control cells and the concentration inhibiting cell growth by 50% was calculated.

For assay [2], the system named is human melanoma cells A375 (with a mutated B-Raf). The experiment in a line: In vitro cell proliferation assay, A375. The settings on record: A-375, 72 h treatment, cellular ATP readout. Here is the method: as §1
In assay [3] the test system is p-MAPK (T202/Y204) in A375 human melanoma cells, having a mutated B-Raf. As to the kind of experiment: p-MAPK (T202/Y204) ArrayScan assay. The following applies: A-375, 1.5 or 2 h treatment, p-MAPK staining, read-out: Array Scan A375 IC50. The method, then:
A375 human melanoma cells, having a mutated B-Raf, were seeded in 384-well poly-lysine coated plates (Matrix) at a density of 1000 cells/well with appropriate medium supplemented with 10% FCS and incubated for 16-24 h. Cells were treated for 1.5 or 2 h with increasing doses of compounds (starting dose 10 μM, dilution factor 2.5). At the end of the treatment cells were fixed with p-formaldehyde 3.7% for 15-30 min, then washed twice with D-PBS (80 μL/well) and permeabilized with D-PBS containing 0.1% Triton X-100 and 1% BSA (Sigma-Aldrich) for 15 min at room temperature (staining solution). Anti-phospho-MAPK (T202/Y204) monoclonal antibody E10 (Cell Signaling, cat. #9106) diluted 1:100 was added in staining solution and incubated for 1 h at 37° C. After removal of the primary antibody solution, the anti-mouse Cy™ 2-conjugated (Green) secondary antibody (Amersham) diluted 1:500 in staining solution containing 2 μg/mL DAPI was added. The plate was incubated for 1 h at 37° C., washed twice and then read with Cellomics' ArrayScan VTI (4 fields/well, CytoNucTrans algorithm).
The parameter “MEAN_RingAvgIntenCh2”, which measures the mean cytoplasmatic fluorescence intensity associated to p-MAPK staining, is reported as the final result.

For `CCN(CC)c1nc(-c2c(F)ccc(NS(=O)(=O)c3cc(F)ccc3F)c2F)c(-c2ccncc2)s1` [cmpd. 3, N-{3-[2-(diethylamino)-5-(pyridin-4-yl)-1,3-thiazol-4-yl]-2,4-difluorophenyl}-2,5-difluorobenzenesulfonamide], the IC50 (as a rule, the concentration that gives 50% inhibition) was greater than 10000 nM in assay [1], 166 nM in assay [2] and 1 nM in assay [3].

`O=S(=O)(Nc1ccc(F)c(-c2nc(N3CCC(F)(F)CC3)sc2-c2ccncc2)c1F)c1cc(F)ccc1F` [cmpd. 14, N-{3-[2-(4,4-difluoropiperidin-1-yl)-5-(pyridin-4-yl)-1,3-thiazol-4-yl]-2,4-difluorophenyl}-2,5-difluorobenzenesulfonamide]: the IC50 is greater than 10000 nM in assay [1], 66 nM in assay [2] and 4 nM in assay [3].

Regarding `O=S(=O)(Nc1cccc(-c2nc(N3CCC(F)(F)CC3)sc2-c2ccncc2)c1F)c1cc(F)ccc1F` [cmpd. 18, N-{3-[2-(4,4-difluoropiperidin-1-yl)-5-(pyridin-4-yl)-1,3-thiazol-4-yl]-2-fluorophenyl}-2,5-difluorobenzenesulfonamide], the IC50 in assay [1] was greater than 10000 nM; in assay [2] it was 127 nM; in assay [3] it was 2 nM.

Consider `CN1CCC(c2nc(-c3cccc(NS(=O)(=O)c4cc(F)ccc4F)c3F)c(-c3ccncc3)s2)CC1` [cmpd. 19, 2,5-difluoro-N-{2-fluoro-3-[2-(1-methylpiperidin-4-yl)-5-(pyridin-4-yl)-1,3-thiazol-4-yl]phenyl}benzenesulfonamide], for which the IC50 was greater than 10000 nM in assay [1], 40 nM in assay [2] and 2 nM in assay [3].

In the case of `O=S(=O)(Nc1cccc(-c2nc(C3CCOCC3)sc2-c2ccncc2)c1F)c1cc(F)ccc1F` [cmpd. 20, 2,5-difluoro-N-{2-fluoro-3-[5-(pyridin-4-yl)-2-(tetrahydro-2H-pyran-4-yl)-1,3-thiazol-4-yl]phenyl}benzenesulfonamide], the IC50 in assay [1] was greater than 10000 nM; in assay [2], 78 nM; in assay [3] it was 2 nM.

As to `O=S(=O)(Nc1cccc(-c2nc(C3CCN(C4CC4)CC3)sc2-c2ccncc2)c1F)c1cc(F)ccc1F` [cmpd. 21, N-{3-[2-(1-cyclopropylpiperidin-4-yl)-5-(pyridin-4-yl)-1,3-thiazol-4-yl]-2-fluorophenyl}-2,5-difluorobenzenesulfonamide], the results for the IC50 in assay [1] and in assay [2] were greater than 10000 nM and 23 nM, respectively.

As to `Nc1cc(-c2sc(C3CCN(C4CC4)CC3)nc2-c2cccc(NS(=O)(=O)c3cc(F)ccc3F)c2F)ccn1` [cmpd. 22, N-{3-[5-(2-aminopyridin-4-yl)-2-(1-cyclopropylpiperidin-4-yl)-1,3-thiazol-4-yl]-2-fluorophenyl}-2,5-difluorobenzenesulfonamide], the IC50 in assay [1] was greater than 10000 nM; in assay [2] it was 27 nM.

As to `CC(=O)Nc1cc(-c2sc(C3CCN(C)CC3)nc2-c2cccc(NS(=O)(=O)c3cc(F)ccc3F)c2F)ccn1` [cmpd. 23, N-{4-[4-(3-{[(2,5-difluorophenyl)sulfonyl]amino}-2-fluorophenyl)-2-(1-methylpiperidin-4-yl)-1,3-thiazol-5-yl]pyridin-2-yl}acetamide], the half-maximal inhibitory concentration (IC50) was greater than 10000 nM in assay [1] and 6 nM in assay [2].

For the compound `Nc1cc(-c2sc(C3CCOCC3)nc2-c2cccc(NS(=O)(=O)c3cc(F)ccc3F)c2F)ccn1` [cmpd. 24, N-{3-[5-(2-aminopyridin-4-yl)-2-(tetrahydro-2H-pyran-4-yl)-1,3-thiazol-4-yl]-2-fluorophenyl}-2,5-difluorobenzenesulfonamide], the IC50 in assay [1] is greater than 10000 nM; in assay [2] it was 15 nM.

Turning to `CNc1cc(-c2sc(C3CCOCC3)nc2-c2cccc(NS(=O)(=O)c3cc(F)ccc3F)c2F)ccn1` [cmpd. 25, 2,5-difluoro-N-(2-fluoro-3-{5-[2-(methylamino)pyridin-4-yl]-2-(tetrahydro-2H-pyran-4-yl)-1,3-thiazol-4-yl}phenyl)benzenesulfonamide], the IC50 in assay [1] is greater than 10000 nM; in assay [2], 32 nM.

For `CC(=O)Nc1cc(-c2sc(C3CCN(C4CC4)CC3)nc2-c2cccc(NS(=O)(=O)c3cc(F)ccc3F)c2F)ccn1` [cmpd. 30, N-{4-[2-(1-cyclopropylpiperidin-4-yl)-4-(3-{[(2,5-difluorophenyl)sulfonyl]amino}-2-fluorophenyl)-1,3-thiazol-5-yl]pyridin-2-yl}acetamide], the IC50 in assay [1] is greater than 10000 nM; in assay [2], 3 nM.

Consider `CC(=O)Nc1cc(-c2sc(C3CCOCC3)nc2-c2cccc(NS(=O)(=O)c3cc(F)ccc3F)c2F)ccn1` [cmpd. 35, N-{4-[4-(3-{[(2,5-difluorophenyl)sulfonyl]amino}-2-fluorophenyl)-2-(tetrahydro-2H-pyran-4-yl)-1,3-thiazol-5-yl]pyridin-2-yl}acetamide], for which the figures for the IC50 in assay [1] and in assay [2] were greater than 10000 nM and 0.6 nM, respectively.

On to `CC(=O)NCCNc1cc(-c2sc(C3CCOCC3)nc2-c2cccc(NS(=O)(=O)c3cc(F)ccc3F)c2F)ccn1` [cmpd. 36, N-[2-({4-[4-(3-{[(2,5-difluorophenyl)sulfonyl]amino}-2-fluorophenyl)-2-(tetrahydro-2H-pyran-4-yl)-1,3-thiazol-5-yl]pyridin-2-yl}amino)ethyl]acetamide], for which the figures for the IC50 in assay [1] and in assay [2] were greater than 10000 nM and 69 nM, respectively.

In the case of `CNc1cc(-c2sc(C3CCN(C4CC4)CC3)nc2-c2cccc(NS(=O)(=O)c3cc(F)ccc3F)c2F)ccn1` [cmpd. 37, N-(3-{2-(1-cyclopropylpiperidin-4-yl)-5-[2-(methylamino)pyridin-4-yl]-1,3-thiazol-4-yl}-2-fluorophenyl)-2,5-difluorobenzenesulfonamide], the values for the IC50 in assay [1] and in assay [2] were greater than 10000 nM and 92 nM, respectively.

`CNc1cc(-c2sc(C3CCN(C)CC3)nc2-c2cccc(NS(=O)(=O)c3cc(F)ccc3F)c2F)ccn1` [cmpd. 38, 2,5-difluoro-N-(2-fluoro-3-{5-[2-(methylamino)pyridin-4-yl]-2-(1-methylpiperidin-4-yl)-1,3-thiazol-4-yl}phenyl)benzenesulfonamide]: the IC50 was greater than 10000 nM in assay [1] and 47 nM in assay [2].

As for `CN1CCC(c2nc(-c3cccc(NS(=O)(=O)c4cc(F)ccc4F)c3F)c(-c3ccnc(N)c3)s2)CC1` [cmpd. 39, N-{3-[5-(2-aminopyridin-4-yl)-2-(1-methylpiperidin-4-yl)-1,3-thiazol-4-yl]-2-fluorophenyl}-2,5-difluorobenzenesulfonamide], the figures for the IC50 in assay [1] and in assay [2] were greater than 10000 nM and 27 nM, respectively.

For `COC(=O)N[C@@H](C)CNc1cc(-c2sc(C3CCOCC3)nc2-c2cccc(NS(=O)(=O)c3cc(F)ccc3F)c2F)ccn1` [cmpd. 41, Methyl [(2S)-1-({4-[4-(3-{[(2,5-difluorophenyl)sulfonyl]amino}-2-fluorophenyl)-2-(tetrahydro-2H-pyran-4-yl)-1,3-thiazol-5-yl]pyridin-2-yl}amino)propan-2-yl]carbamate], the figures for the IC50 in assay [1] and in assay [2] were greater than 10000 nM and 8 nM, respectively.

For the compound `CC(=O)Nc1cc(-c2sc(C(C)(C)C)nc2-c2cccc(NS(=O)(=O)c3cc(F)ccc3F)c2F)ccn1` [cmpd. 42, N-{4-[2-tert-butyl-4-(3-{[(2,5-difluorophenyl)sulfonyl]amino}-2-fluorophenyl)-1,3-thiazol-5-yl]pyridin-2-yl}acetamide], the IC50 in assay [1] is greater than 10000 nM; in assay [2] it was 0.6 nM.

As to `CC(C)(C)c1nc(-c2cccc(NS(=O)(=O)c3cc(F)ccc3F)c2F)c(-c2ccncc2)s1` [cmpd. 43, N-{3-[2-tert-butyl-5-(pyridin-4-yl)-1,3-thiazol-4-yl]-2-fluorophenyl}-2,5-difluorobenzenesulfonamide], the half-maximal inhibitory concentration (IC50) in assay [1] is greater than 10000 nM; in assay [2], 12 nM.

Take `CC(=O)Nc1cc(-c2sc(C3CCNCC3)nc2-c2cccc(NS(=O)(=O)c3cc(F)ccc3F)c2F)ccn1` [cmpd. 44, N-{4-[4-(3-{[(2,5-difluorophenyl)sulfonyl]amino}-2-fluorophenyl)-2-(piperidin-4-yl)-1,3-thiazol-5-yl]pyridin-2-yl}acetamide]: the IC50 in assay [1] is greater than 10000 nM; in assay [2] it was 40 nM.
